{"source": "patent US12473305B2", "about": "“Pyrazole boronic acid compound, pharmaceutical composition containing same, and uses thereof” (BEIJING SONGRUN PHARMACEUTICAL TECHNOLOGY CO., LTD., priority 2020, dated 2025)", "key": {"PC3": {"test_system": "PC3", "assay": "MTT antitumor spectrum, PC3", "format": "cell-based", "settings": "Homo sapiens, PC-3, 72 h", "method": "(§1) The activity of compound 30 was evaluated by MTT method against seven tumor cell models, A549, A375, HCT116, MDA-MB-231, HepG2, PC3 and MCF-7. All cells used in the study were prepared at a concentration of 3.5×10^3 cells/mL, and each […] cell suspension was inoculated on a 96-well microtiter plate for 24 hours (37° C., 5% CO2). Then different concentrations of compound 30 were added, incubated for 72 hours; and for the control group, equivalent concentrations of DMSO (final concentration 0.5%) were added. The number of viable cells was measured by MTT (3-(4,5-dimethylthiazol-2-yl)-diphenyl tetrazolium bromide) method, and the OD value at 492/620 nm was recorded. The IC50 value was calculated by Prism-Graphpad software based on the results of triplicate experiments."}, "[1]": {"biological_target": "T1, 20S proteasome β1 subunit (Homo sapiens, UniProt P28072+Q99436)", "T1 construct": "endogenous in cells; host or cells: K562", "assay": "Proteasome-Glo Cell-Based assay in K562 cells, β1 subunit", "settings": "2 h incubation", "method": "Proteasome-Glo™ Cell-Based assay kit (Promega, USA) was used to determine the activity of the target compound against the 20S proteasome. Human chronic myeloid leukemia cell line (K562, 6000 cells/well) was inoculated into the 384 well plate in 20 μL/well. The cells were then equilibrated at 37° C., 5% CO2 for 2 hours. Each 384 well plate was set with the mock group and treatment group, and each well of the treatment group was added with 5 μL of the compound solution with the final concentration of 40 μM, 13.3 μM, 4.44 μM, 1.48 μM, 0.49 μM, 0.16 μM, 0.055 μM, 0.0183 μM, […], 0.0061 μM. The cells was incubated with the drugs for 2 hours at 37° C., 5% CO2 before adding 25 μL of corresponding Proteasome-Glo™ Cell-Based reagent per well. The relative luminescence unit (RLU) was measured by using Multimode Microplate Reader Varioskan Flash (Thermo Scientific, USA) after 15 min and compared with the RLU of the control group. SigmaPlot 10.0 software was used to calculate IC50 value."}, "MDA-MB-231": {"test_system": "MDA-MB-231", "assay": "MTT antitumor spectrum, MDA-MB-231", "format": "cell-based", "settings": "Homo sapiens, 72 h", "method": "as §1"}, "HCT116": {"test_system": "HCT116", "assay": "MTT antitumor spectrum, HCT116", "format": "cell-based", "settings": "Homo sapiens, HCT-116, 72 h", "method": "as §1"}, "[2]": {"assay": "Maximum tolerated dose in mice", "format": "in vivo", "settings": "for body weight (M ± S.E.): in g (unit assumed)", "method": "Healthy non-tumor bearing female NOD/SCID mice (purchased from Sipeifu Biotechnology Co., Ltd.) were selected for the Maximum Tolerated Dose (MTD) test. Compound 39 was administered to NOD/SCID mice directly through a single tail vein injection, and the vehicle (0.3 mL DMSO, 0.27 mL Tween-80, 2.43 mL normal saline) was used as the control group. According to the dose of compound 39, the administration group was divided into three groups: low-dose group (10 mg/kg), medium-dose group (20 mg/kg), and high-dose group (30 mg/kg), with seven mice in each group."}}, "data": [{"smiles": "CC(C)C[C@H](NC(=O)Cn1nc(-c2cccc(OCCN3CCOCC3)c2)cc1-c1ccccc1)B(O)O.Cl", "note": "[Compound 30, (R)-(3-methyl-1-(2-(3-(3-(2-morpholinoethoxy)phenyl)-5-phenyl-1H-pyrazol-1-yl)-acetamido)butyl)boronic acid hydrochloride]", "values": [{"measurement": "IC50", "setting": "PC3", "value": 0.82, "unit": "µM"}, {"measurement": "IC50", "setting": "[1]", "value": 2.04, "unit": "µM"}, {"measurement": "IC50", "setting": "MDA-MB-231", "value": 0.94, "unit": "µM"}, {"measurement": "IC50", "setting": "HCT116", "value": 0.63, "unit": "µM"}]}, {"smiles": "CC(C)C[C@H](NC(=O)Cn1nc(-c2cccc(OCCN3CCN(c4ccccc4)CC3)c2)cc1-c1ccccc1)B(O)O.Cl", "note": "[Compound 39, (R)-(3-methyl-1-(2-(5-phenyl-3-(3-(2-(4-phenylpiperazin-1-yl)ethoxy)phenyl)-1H-pyrazol-1-yl)acetamido)butyl)boronic acid hydrochloride]", "values": [{"measurement": "body weight (M ± S.E.)", "setting": "[2]; High-dose 30 mg/kg single tail vein injection, Day 0 (day before administration)", "value": "24.2 ± 0.5"}, {"measurement": "body weight (M ± S.E.)", "setting": "[2]; High-dose 30 mg/kg single tail vein injection, Day 1", "value": "24.0 ± 0.5"}, {"measurement": "body weight (M ± S.E.)", "setting": "[2]; High-dose 30 mg/kg single tail vein injection, Day 2", "value": "22.4 ± 0.6"}, {"measurement": "body weight (M ± S.E.)", "setting": "[2]; High-dose 30 mg/kg single tail vein injection, Day 3", "value": "22.5 ± 0.6"}, {"measurement": "body weight (M ± S.E.)", "setting": "[2]; High-dose 30 mg/kg single tail vein injection, Day 4", "value": "22.7 ± 0.7"}, {"measurement": "body weight (M ± S.E.)", "setting": "[2]; High-dose 30 mg/kg single tail vein injection, Day 5", "value": "22.9 ± 0.6"}, {"measurement": "body weight (M ± S.E.)", "setting": "[2]; High-dose 30 mg/kg single tail vein injection, Day 6", "value": "22.5 ± 0.6"}, {"measurement": "body weight (M ± S.E.)", "setting": "[2]; High-dose 30 mg/kg single tail vein injection, Day 7", "value": "23.1 ± 0.4"}, {"measurement": "body weight (M ± S.E.)", "setting": "[2]; Low-dose 10 mg/kg single tail vein injection, Day 0 (day before administration)", "value": "24.2 ± 0.8"}, {"measurement": "body weight (M ± S.E.)", "setting": "[2]; Low-dose 10 mg/kg single tail vein injection, Day 1", "value": "24.5 ± 0.8"}, {"measurement": "body weight (M ± S.E.)", "setting": "[2]; Low-dose 10 mg/kg single tail vein injection, Day 2", "value": "23.3 ± 1.1"}, {"measurement": "body weight (M ± S.E.)", "setting": "[2]; Low-dose 10 mg/kg single tail vein injection, Day 3", "value": "23.4 ± 1.0"}, {"measurement": "body weight (M ± S.E.)", "setting": "[2]; Low-dose 10 mg/kg single tail vein injection, Day 4", "value": "23.7 ± 1.1"}, {"measurement": "body weight (M ± S.E.)", "setting": "[2]; Low-dose 10 mg/kg single tail vein injection, Day 5", "value": "24.1 ± 1.0"}, {"measurement": "body weight (M ± S.E.)", "setting": "[2]; Low-dose 10 mg/kg single tail vein injection, Day 6", "value": "24.4 ± 0.8"}, {"measurement": "body weight (M ± S.E.)", "setting": "[2]; Low-dose 10 mg/kg single tail vein injection, Day 7", "value": "24.7 ± 0.7"}, {"measurement": "body weight (M ± S.E.)", "setting": "[2]; Medium-dose 20 mg/kg single tail vein injection, Day 0 (day before administration)", "value": "24.7 ± 0.2"}, {"measurement": "body weight (M ± S.E.)", "setting": "[2]; Medium-dose 20 mg/kg single tail vein injection, Day 1", "value": "24.1 ± 0.5"}, {"measurement": "body weight (M ± S.E.)", "setting": "[2]; Medium-dose 20 mg/kg single tail vein injection, Day 2", "value": "22.8 ± 0.4"}, {"measurement": "body weight (M ± S.E.)", "setting": "[2]; Medium-dose 20 mg/kg single tail vein injection, Day 3", "value": "22.7 ± 0.4"}, {"measurement": "body weight (M ± S.E.)", "setting": "[2]; Medium-dose 20 mg/kg single tail vein injection, Day 4", "value": "22.8 ± 0.5"}, {"measurement": "body weight (M ± S.E.)", "setting": "[2]; Medium-dose 20 mg/kg single tail vein injection, Day 5", "value": "23.3 ± 0.6"}, {"measurement": "body weight (M ± S.E.)", "setting": "[2]; Medium-dose 20 mg/kg single tail vein injection, Day 6", "value": "23.7 ± 0.7"}, {"measurement": "body weight (M ± S.E.)", "setting": "[2]; Medium-dose 20 mg/kg single tail vein injection, Day 7", "value": "24.0 ± 0.7"}, {"measurement": "average body weight change of mice", "setting": "[2]; doses of 30 mg/kg or less, single tail vein injection", "value": "not more than 5%"}, {"measurement": "MTD at 7 days", "setting": "[2]; female, NOD/SCID, mouse, in vivo, single tail vein injection, 7 days observation, read-out: dose safe to be administered (maximum tolerated dose test)", "value": "≤ 30", "unit": "mg/kg"}]}]}
